These results are taken from patent publication US20060078570A1, “Use of asafetida extract as medicine for abstinence of drugs” (priority 2004, published 2006).

The test system of assay [1] is subjects addicted to heroin for over 10 years. The experiment in a line: Clinical trial (typical case): subjects addicted to heroin for over 10 years, asafetida injection intravenously. In kind it is in vivo, human. To be noted: 25 cases per group, heroin over 10 years, phenoxyimidazoline hydrochloride 0.1 mg tablet, thrice per day.
In assay [2] the test system is subjects addicted to drugs. The experiment in a line: Clinical trial: abstinence treatment of subjects addicted to drugs, asafetida injection intramuscularly. In kind it is in vivo, human. The following applies: 20 cases per group, thrice per day, phenoxyimidazoline hydrochloride 0.1 mg tablet. The text has this:
The typical performance of abstinence syndrome was as follows: yawning, lacrimation, perspiring, bad mood, anxiety, and dysphoria.
Apparently effective: the abstinence syndrome disappears completely and performance is normal.
Effective: the abstinence syndrome is obviously abated.
Ineffective: the abstinence syndrome has no obvious remission or no remission at all.
The subjects addicted to drugs were randomly grouped into asafetida injection treatment group, phenoxyimidazoline hydrochloride positive control group, placebo negative control group, wherein the phenoxyimidazoline hydrochloride is a relatively effective medicine for abstinence of drugs at present. The pharmaceuticals and usage thereof in each group were as follows:
Asafetida injection, 2 ml (equivalent to 1 g of original crude material)/bottle, thrice per day, a bottle per time, injected intramuscularly, for three consecutive days.
Phenoxyimidazoline hydrochloride, 0.1 mg/tablet, thrice per day, a tablet per time, for three consecutive days.
Placebo (physiological saline), 2 ml/bottle, thrice per day, a bottle per time, injected intramuscularly, for three consecutive days.

Assay [3] has as its system morphine-dependent rats. Put plainly: Naloxone-promoted abstinence experiment in morphine-dependent rats (symptom scores and body weight decrease). In kind it is in vivo, Wistar rat.
Setting [4] is: asafetida 5 ml i.v., three days.
The mark [5] stands for this setting: three days, asafetida 2 ml i.m.
The mark [6] stands for this setting: clonidine 0.1 mg/kg perfused, X ± S, n=10.

Structures can show the parent of a compound that is named as a salt.

As to `Clc1cccc(Cl)c1N=C1NCCN1` [clonidine, phenoxyimidazoline hydrochloride], the “Apparently effective, %” value is listed as 60.00% in assay [1] (setting [4]) and 65.00% in assay [2] (setting [5]). Also, the entries for the “Effective, %” value in assay [1] (setting [4]) and in assay [2] (setting [5]) were 40.00% and 35.00%, respectively. Moreover, the “Effective, Number of Cases” value is recorded as 10 in assay [1] (setting [4]) and 7 in assay [2] (setting [5]). For the same compound, the “Ineffective, %” value in assay [1] (setting [4]) and in assay [2] (setting [5]) was 0% in each case. Also, the “Ineffective, Number of Cases” value in assay [1] (setting [4]) and in assay [2] (setting [5]) was 0 throughout. Besides, the “Total effective rate %” value in assay [1] (setting [4]) and in assay [2] (setting [5]) was 100% each time. In addition, the “Apparently effective, Number of Cases” value in assay [1] (three consecutive days, asafetida injection 5 ml (2.5 g crude material) intravenously) is listed as 15; in assay [2] (three consecutive days, asafetida injection 2 ml (1 g crude material) intramuscularly), 13. Besides, the “Scores of performance and autonomic nervous system symptoms of rats after naloxone administration” value turned out to be 2.22 ± 2.29 in assay [3] (clonidine 0.1 mg/kg perfused once a day, three times, 15 min after naloxone 4 mg/kg i.p., mean ± SD, n=10); 2.68 ± 1.81 in assay [3] (clonidine 0.1 mg/kg perfused, 30 min after naloxone); 1.21 ± 1.80 in assay [3] (clonidine 0.1 mg/kg perfused, 45 min after naloxone); 1.61 ± 1.54 in assay [3] (clonidine 0.1 mg/kg perfused, 60 min after naloxone); 0.40 ± 0.68 in assay [3] (clonidine 0.1 mg/kg perfused, 90 min after naloxone); 0 ± 0 in assay [3] (clonidine 0.1 mg/kg perfused, 120 min after naloxone). The “body weight decreasing at 30 min after administrating naloxone” value in assay [3] (setting [6]) worked out at 4.077 ± 3.431 g. In addition, the “body weight decreasing at 60 min after administrating naloxone” value in assay [3] (setting [6]) is on record as 5.560 ± 4.960 g.
